For data set [1], the system named is 3xTg-AD mice. The data set can be described thus: Morris water maze test. It is filed as in vivo. The note with it: oral, 1 and 2.5 mg/kg, 8 months. The procedure:
(§1) Female homozygous 3xTg-AD mice carrying transgenes for APP (Swedish KM670/671Nl), MAPT (tauP301L) and Psen1 (M146V) were procured from Jackson’s Laboratory (# 004807). The transgenic mice colonies were bred and maintained in the HKBU animal house at 23 ± 2 °C, 60 ± 15% relative humidity with regular access to food and water. Seven-month-old 3xTg-AD mice were randomly segregated into three treatment groups: Tg-Vehicle, 1 mg/kg, and 2.5 mg/kg PRO-Br. PRO-Br was administered orally for 8 months (n = 8). The bodyweight of mice from all the groups was recorded once every week.
To determine the memory functions of experimental mice, the Morris water maze test was performed according to the procedure described previously ([Iyaswamy et al., 2020]). Mice training preliminary to the probe trail was performed in two phases. The first phase, known as the visible-platform training, comprised four trials, for 1 day. In each trial, a platform was placed in the tank, 1 cm below the surface of the (clear) water. The mouse was introduced, and the time required for the mouse to find the platform was recorded. The position of the platform was changed for every trial. […] The distance travelled (cm) to reach the platform in the target quadrant was observed and recorded by a video tracking method (Ethovision, Noldus Information Technology, Version 3).

Data set [2] relates to 3xTg-AD mice. In words: Golgi staining of dendritic spines. The class given is in vivo. The note with it: oral, 8 months. The procedure:
as §1
FD Rapid Golgi Stain Kit was employed to determine the dendritic spine density in the 3xTg-AD mice brains and was performed according to procedure described previously ([Iyaswamy et al., 2022]). Briefly, mice were perfused using 4% PFA, and the brains were dissected carefully to avoid damage. Next, the brain samples were frozen by dipping in isopentane solution (on dry ice). The frozen brains were sectioned at 150 μm thickness using a Shandon Cryotome SME Cryostat (Ramsey, MN, United States). The tissue slices were carefully mounted onto glass slides and stained with the kit reagents in accordance with the manufacturer’s procedure. The dendritic images were acquired by Leica confocal microscope. […]

Data set [3] deals with 3xTg-AD mice. The data set can be described thus: Brain immunoblotting (sarkosyl tau fractions, chaperones, LAMP2A) and IHC. It is filed as in vivo. The procedure:
as §1
Brain tissues from experimental mice were carefully isolated, washed with 1X PBS, and fixed with 4% paraformaldehyde. Post-fixation for 48 h, brain tissues were transferred to 30% sucrose solution for cryopreservation. Tissue sections (30 μm) were obtained using a cryotome, maintained at a constant -30°C. Permeabilization was performed with 0.4% triton-X-100 for 10 min. For tau immunofluorescence, PHF1 primary antibody was added, and sections were kept overnight at four°C. The following day, an appropriate secondary antibody was added at RT for 1.5 h. DAPI was used as a nuclear stain for 5 min. For DAB staining, AT8 primary antibody was added to the sections overnight. The next day, an appropriate secondary antibody was added for 1.5 h. Staining was performed by employing a Vectastain-ELITE ABC-HRP kit according to the manufacturer’s procedure. The stained sections were carefully arranged on glass slides and mounted with an appropriate mounting medium under a coverslip. Images of cortical/hippocampal regions were taken with an Eclipse 80i fluorescence microscope (Nikon Instruments Inc.). The threshold was adjusted to remove the background staining. The captured images were quantified using ImageJ (NIH) software.
Brain tissues of 3xTg-AD and P301S mice were separated, sagittally, into equal halves. One-half was lysed with tissue lysis buffer augmented with phosphatase and protease inhibitor cocktail tablets, while the other half was used for immunohistochemical analysis. Brain tissues were homogenized on ice using an Ultra Turrax tissue homogenizer. Brain tissue homogenate was subjected to sarkosyl differential centrifugation with 1% sarkosyl to separate the non-pathogenic soluble and pathogenic insoluble tau fractions. Protein lysates were evaluated for changes in levels of phospho epitopes of tau (AT8, CP13, PHF-1, MC-1, and ALZ50), and for total htau (HT7) using Western blot.
(§2) After PRO-Br treatment, cells were solubilised using cold RIPA lysis buffer (9803, Life Technologies), containing protease and phosphatase inhibitor tablets. Cells were sonicated and centrifuged at 14000 rpm for 15 min. Total protein concentration was determined by BCA protein assay, and the samples were separated on SDS-PAGE and transferred to PVDF membranes. The membranes were blocked, washed, and incubated with primary antibodies (Table 1), and incubated at 4°C, overnight. The membranes were further incubated with the required dilutions of secondary antibody for 1 h, at RT. The chemiluminescent signals were captured using x-ray film in a darkroom, with an appropriate chemiluminescent substrate kit (ThermoFisher Scientific, United States). Films were scanned, and the relative intensities of the signals were analyzed using ImageJ software.
On the technique in general: In western blotting, separated proteins are transferred to a membrane and probed.

Data set [4] concerns N2A cells. In words: LAMP2A / HSC70 expression. Particulars: compared to Trehalose (positive control). The class given is cell-based, mouse. The procedure:
SHSY5Y cells stably-expressing mutant tau (SHSYP301L) were cultured in DMEM/F12 + 15% FBS, 3 μg/ml Blasticidin S HCl, and 1X PSN. N2A mouse neuroblastoma and mouse hippocampal neuronal (HT22) cells were cultured in DMEM+10% FBS, and 1X PSN. Sterile complete medium containing PRO-Br was added to the cells, and they were then incubated for 24 h at an optimum temperature of 37°C in a sterile 5% CO2 incubator.
as §2

The source of these data is article PMC9643865, “Bromo-protopine, a novel protopine derivative, alleviates tau pathology by activating chaperone-mediated autophagy for Alzheimer’s disease therapy” (Frontiers in Molecular Biosciences, 2022).

For the molecule `CN1CCc2cc3c(cc2C(=O)Cc2c(Br)cc4c(c2C1)OCO4)OCO3` [PRO-Br, bromo-protopine], the “learning and memory impairment (Morris water maze)” value in data set [1] is “significantly reversed the learning and memory impairment”. Further, the “dendritic spine structures (thin, stubby and mushroom-like) in the hippocampus” value in data set [2] is “significantly enhanced the dendritic spine structures”. In data set [3] (1.0 and 2.5 mg/kg, IHC), the “AT8-positive cell count in the cortico-hippocampal regions” value is on record as “significantly reduced AT8-positive cell count”. Further, in data set [3] (brain, immunoblotting), the “acetylation of HSP90 (K294)” value was “dose-dependently enhanced the acetylation of HSP90 (K294)”; the “expression of sarkosyl-insoluble phospho-tau variants” value is “specifically reduced the expression of sarkosyl-insoluble phospho-tau variants in a dose-dependent manner”; the “heat shock proteins HSP70 and HSC70” value is “dose-dependently increased the heat shock proteins HSP70 and HSC70”; the “protein expression of LAMP2A” value is recorded as “dose-dependently increased”. In data set [4], the “expression of LAMP2A and HSC70” value was “increased expression of LAMP2A and HSC70”.
